Reference: patent US12577219B2, “Macrolide brefeldin a ester derivatives and use thereof” (OCEAN UNIVERSITY OF CHINA, priority 2019, dated 2026)
Values after ≈ are worked out from the molar mass of the structure shown.

Tests used:
[1] = system: pancreatic cancer PANC-1cells; test: Cell proliferation assay (CCK-8); assay type: cell-based, human; details: PANC-1, 72 h
Description: (§1) CCK-8 method: The CCK-8 method is a highly sensitive, non-radioactive colorimetric assay for the determination of the number of viable cells in cell proliferation or cytotoxicity assays. The orange formazan dye produced by the bioreduction of CCK-8 by intracellular dehydrogenase is soluble in the cell culture medium, and the amount of formazan dye produced is proportional to the number of living cells. The kit used in this method is the tetrazolium salt-WST-8 (2-(2-methoxy-4-nitrophenyl)-3-(4-nitrophenyl)-5-(2,4-disulfophenyl)-2H-tetrazolium monosodium salt) developed by Dojindo Chemical Research Institute (Dojindo), which is capable of being reduced to a water-soluble formazan dye in the presence of the electronic carrier 1-Methoxy PMS.
(§2) Human cervical cancer Hela cells, pancreatic cancer PANC-1cells, esophageal cancer Eca-109 cells, human leukemia K562 cells, human lung cancer A549 cells, human liver cancer HepG2 cells, human gastric cancer MKN-45 cells, human breast cancer MCF7 cells were cultured in DMEM medium containing 10% FBS (fetal bovine serum), 100 U/mL penicillin and 100 μg/ml streptomycin. Hepatocellular carcinoma cells Bel-7402 were cultured in RPMI-1640 medium containing 10% FBS (fetal bovine serum), 100 U/ml penicillin and 100 μg/ml streptomycin. All cells were placed in a cell culture incubator at 37° C. with 5% CO2. Cells fluid was changed every 3-5 days, and after 80% cell fusion, trypsin digestion and passaging were performed to keep the cells in good logarithmic growth phase.
(§3) All the samples to be tested were dissolved in DMSO.
(§4) Cells in logarithmic growth phase were inoculated in 96-well plates with 5000 cells/well respectively, and after 24 h of incubation, samples were added (final concentrations as shown in the table), and biplicate wells were set up for each sample. The amount of solvent of DMSO was not higher than 2%. After 72 h, 10 μL of CCK-8 solution was added to each well and incubated for 1.5˜3 h at 37° C. The OD value at 450 nm was measured on an plate reader. Inhibition rate (%)=(1−[(OD450 dosed well−OD450 blank well)/(OD450 control well−OD450 blank well)])×100%
(§5) The fitted IC50 values were calculated using the log (inhibitor) vs. response—Variable slop analysis method in GraphPad Prism software.

[2] = system: esophageal cancer Eca-109 cells; test: Cell proliferation assay (CCK-8); assay type: cell-based, human; details: Eca-109, 72 h
Description: as §1, §2, §3, §4, §5

[3] = system: human gastric cancer MKN-45 cells; test: Cell proliferation assay (CCK-8); assay type: cell-based; details: MKN-45, 72 h
Description: as §1, §2, §3, §4, §5

[4] = system: Human cervical cancer Hela cells; test: Cell proliferation assay (CCK-8); assay type: cell-based; details: 72 h
Description: as §1, §2, §3, §4, §5

[5] = system: human breast cancer MCF7 cells; test: Cell proliferation assay (CCK-8); assay type: cell-based; details: MCF7, 72 h
Description: as §1, §2, §3, §4, §5

[6] = system: human lung cancer A549 cells; test: Cell proliferation assay (CCK-8); assay type: cell-based; details: A549, 72 h
Description: as §1, §2, §3, §4, §5

[7] = system: human liver cancer HepG2 cells; test: Cell proliferation assay (CCK-8); assay type: cell-based; details: HepG2, 72 h
Description: as §1, §2, §3, §4, §5

[8] = system: human leukemia K562 cells; test: Cell proliferation assay (CCK-8); assay type: cell-based; details: K562, 72 h
Description: as §1, §2, §3, §4, §5

[9] = Solubility test (shaker 37° C., 24 h, HPLC); details: for solubility at 24 h: 37 °C, thermodynamic from solid
Method: (§6) The term “solubility” refers to the mass of solute dissolved when a solid substance reaches saturation state in 100 g solvent at a certain temperature.
(§7) Methods: Excess BFA and the compounds disclosed herein were added to 10 mL of three solvents, methanol, acetone and 5% DMSO+95% H2O, respectively, and shaken on a shaker at 37° C. at 100 r/min for 24 h. After 24 h, the samples were centrifuged at 15,000 r/min for 15 min to remove the undissolved compounds. The supernatant was filtered using a 0.45 μm membrane filter. The supernatant was appropriately diluted with methanol and contents of the compounds were determined by HPLC method to calculate the solubility.

[10] = system: Kunming breed mice; test: Toxicity test after intraperitoneal administration to mice; assay type: in vivo; details: ip.; for Organ abnormality at anatomy: anatomy on the 14 th day; for Mental condition of the animals after administration: high and low doses; for Deaths after administration: high and low doses (BFA effective amount conversion), 14 d
Procedure: Objective: Observation of toxic effects of compounds after intraperitoneally administration (ip.) to mice
1) Agents: Compounds disclosed herein were formulated to a suitable concentration.
2) Animals: Kunming breed mice, weight 18-22 g, male. Provided by Jinan Pengyue Laboratory Animal Breeding Co., Ltd. Animal license number: SCXK (Shandong 20140007)
Method: Kunming breed mice, were randomly grouped by weight, 6 mice per group, namely normal control group, BFA high and low dose groups (100 mg/kg and 50 mg/kg, respectively), and high and low dose groups of some compounds disclosed herein (BFA effective amount conversion). […] After 14 d of continuous administration, all the animals were weighed, and the animals were executed to observe whether there were any abnormalities in the organs.

[11] = physchem; details: 37 °C, thermodynamic from solid, x ± s, n = 3
Method: as §6, §7

[12] = 5% DMSO + 95% H2O, aqueous with cosolvent or surfactant or cyclodextrin
[13] = acetone, organic solvent or mixture
[14] = methanol, organic solvent or mixture

COc1cccc2c1C(=O)c1c(O)c3c(c(O)c1C2=O)C[C@@](O)(C(=O)CO)C[C@@H]3O[C@H]1C[C@H](N)[C@H](O)[C@H](C)O1 [Adriamycin]
IC50 ([1]; Homo sapiens): < 0.1 µM
IC50 ([2]; Homo sapiens): 0.1 to 1 µM
IC50 ([3]; Homo sapiens): 0.1 to 1 µM
IC50 ([4]; Homo sapiens): 0.1 to 1 µM
IC50 ([5]; Homo sapiens): 1 to 10 µM
IC50 ([6]; Homo sapiens): 0.1 to 1 µM
IC50 ([7]; Homo sapiens): > 10 µM
IC50 ([8]; Homo sapiens): 1 to 10 µM

C[C@H]1CCC/C=C/[C@@H]2C[C@H](O)C[C@H]2[C@H](O)/C=C/C(=O)O1 [BFA, Brefeldin A]
Solubility, 5% DMSO + 95% H2O ([9]; 5% DMSO + 95% H2O, 37° C., 24 h, x ± s, n = 3): 85 ± 30 µg/mL
Solubility, Acetone ([9]; acetone, 37° C., 24 h, x ± s, n = 3): 3130 ± 1240 µg/mL (≈ 11.2 mM)
Solubility, Methanol ([9]; methanol, 37° C., 24 h, x ± s, n = 3): 3130 ± 1240 µg/mL (≈ 11.2 mM)
IC50 [1]: < 0.1 µM
IC50 [2]: 0.1 to 1 µM
IC50 [3]: 0.1 to 1 µM
IC50 [4]: 0.1 to 1 µM
IC50 [5]: < 0.1 µM
IC50 [6]: 0.1 to 1 µM
IC50 [7]: 0.1 to 1 µM
IC50 [8]: 0.1 to 1 µM

C[C@H]1CCC/C=C/[C@@H]2C[C@H](OC(=O)/C=C/c3cccc(F)c3)C[C@H]2[C@H](O)/C=C/C(=O)O1 [Compound 1a, 7-O-(3-fluorocinnamic acid)acyl BFA]
Organ abnormality at anatomy [10]: no significant abnormality in all organs
Mental condition of the animals after administration [10]: good mental condition
Deaths after administration [10]: no deaths

C[C@H]1CCC/C=C/[C@@H]2C[C@H](O)C[C@H]2[C@H](OC(=O)/C=C/c2cccc(F)c2)/C=C/C(=O)O1 [Compound 1b, 4-O-(3-fluorocinnamic acid)acyl BFA]
Organ abnormality at anatomy [10]: no significant abnormality in all organs
Mental condition of the animals after administration [10]: good mental condition
Deaths after administration [10]: no deaths

C[C@H]1CCC/C=C/[C@@H]2C[C@H](OC(=O)/C=C/c3cccc(F)c3)C[C@H]2[C@H](OC(=O)/C=C/c2cccc(F)c2)/C=C/C(=O)O1 [Compound 1c, 4,7-O-bis(3-fluorocinnamic acid)acyl BFA]
Organ abnormality at anatomy [10]: no significant abnormality in all organs
Mental condition of the animals after administration [10]: good mental condition
Deaths after administration [10]: no deaths

C[C@H]1CCC/C=C/[C@@H]2C[C@H](O)C[C@H]2[C@H](OC(=O)/C=C/c2ccc3c(c2)OCO3)/C=C/C(=O)O1 [Compound 9b, 4-O-((E)-3-(benzo[d][1,3]dioxa-5-yl)acrylic acid)acyl BFA]
IC50 [1]: 0.1 to 1 µM
IC50 [2]: 1 to 10 µM
IC50 [3]: 0.1 to 1 µM
IC50 [4]: 1 to 10 µM
IC50 [5]: 0.1 to 1 µM
IC50 [6]: 0.1 to 1 µM
IC50 [7]: 1 to 10 µM
IC50 [8]: 0.1 to 1 µM

C[C@H]1CCC/C=C/[C@@H]2C[C@H](OC(=O)/C=C/c3ccc(N(C)C)cc3)C[C@H]2[C@H](O)/C=C/C(=O)O1 [Compound 10a, 7-O-(4-dimethylaminocinnamic acid)acyl BFA]
Organ abnormality at anatomy [10]: no significant abnormality in all organs
Mental condition of the animals after administration [10]: good mental condition
Deaths after administration [10]: no deaths

C[C@H]1CCC/C=C/[C@@H]2C[C@H](O)C[C@H]2[C@H](OC(=O)/C=C/c2ccc(N(C)C)cc2)/C=C/C(=O)O1 [Compound 10b, 4-O-(4-dimethylaminocinnamic acid)acyl BFA]
Organ abnormality at anatomy [10]: no significant abnormality in all organs
Mental condition of the animals after administration [10]: good mental condition
Deaths after administration [10]: no deaths

C[C@H]1CCC/C=C/[C@@H]2C[C@H](OC(=O)/C=C/c3ccc(N(C)C)cc3)C[C@H]2[C@H](OC(=O)/C=C/c2ccc(N(C)C)cc2)/C=C/C(=O)O1 [Compound 10c, 4,7-O-bis(4-dimethylaminocinnamic acid)acyl BFA]
Organ abnormality at anatomy [10]: no significant abnormality in all organs
Mental condition of the animals after administration [10]: good mental condition
Deaths after administration [10]: no deaths

C[C@H]1CCC/C=C/[C@@H]2C[C@H](OC(=O)/C=C/c3cccnc3)C[C@H]2[C@H](O)/C=C/C(=O)O1 [Compound 16a, 7-O-(3-(pyridine-3-yl)acrylic acid)acyl BFA]
Organ abnormality at anatomy [10]: no significant abnormality in all organs
Mental condition of the animals after administration [10]: good mental condition
Deaths after administration [10]: no deaths

C[C@H]1CCC/C=C/[C@@H]2C[C@H](O)C[C@H]2[C@H](OC(=O)/C=C/c2cccnc2)/C=C/C(=O)O1 [Compound 16b]
Organ abnormality at anatomy [10]: no significant abnormality in all organs
Mental condition of the animals after administration [10]: good mental condition
Deaths after administration [10]: no deaths

C[C@H]1CCC/C=C/[C@@H]2C[C@H](OC(=O)/C=C/c3cccnc3)C[C@H]2[C@H](OC(=O)/C=C/c2cccnc2)/C=C/C(=O)O1 [Compound 16c]
Organ abnormality at anatomy [10]: no significant abnormality in all organs
Mental condition of the animals after administration [10]: good mental condition
Deaths after administration [10]: no deaths

C[C@H]1CCC/C=C/[C@@H]2C[C@H](OC(=O)/C=C/c3cnc4ccccc4c3)C[C@H]2[C@H](OC(=O)/C=C/c2cnc3ccccc3c2)/C=C/C(=O)O1 [Compound 17c]
IC50 [1]: 0.1 to 1 µM
IC50 [2]: 1 to 10 µM
IC50 [3]: 1 to 10 µM
IC50 [4]: 1 to 10 µM
IC50 [5]: 0.1 to 1 µM
IC50 [6]: 1 to 10 µM
IC50 [7]: 0.1 to 1 µM
IC50 [8]: 0.1 to 1 µM

C[C@H]1CCC/C=C/[C@@H]2C[C@H](OC(=O)/C=C/c3ccccc3)C[C@H]2[C@H](O)/C=C/C(=O)O1 [Compound A]
solubility at 24 h ([11]; aqueous with cosolvent or surfactant or cyclodextrin, 5% DMSO + 95% H2O): 220 ± 130 µg/mL
solubility at 24 h ([11]; organic solvent or mixture, Acetone): 9460 ± 1260 µg/mL (≈ 23 mM)
solubility at 24 h ([11]; organic solvent or mixture, Methanol): 9480 ± 1010 µg/mL (≈ 23.1 mM)
IC50 ([1]; Homo sapiens): 0.1 to 1 µM
IC50 ([2]; Homo sapiens): 1 to 10 µM
IC50 ([3]; Homo sapiens): 1 to 10 µM
IC50 ([4]; Homo sapiens): 1 to 10 µM
IC50 ([5]; Homo sapiens): 0.1 to 1 µM
IC50 ([6]; Homo sapiens): 1 to 10 µM
IC50 ([7]; Homo sapiens): 1 to 10 µM
IC50 ([8]; Homo sapiens): 0.1 to 1 µM

C[C@H]1CCC/C=C/[C@@H]2C[C@H](O)C[C@H]2[C@H](OC(=O)/C=C/c2ccccc2)/C=C/C(=O)O1 [Compound B]
solubility at 24 h [9, 12]: 220 ± 160 µg/mL
solubility at 24 h [9, 13]: 9480 ± 3230 µg/mL (≈ 23.1 mM)
solubility at 24 h [9, 14]: 9410 ± 1510 µg/mL (≈ 22.9 mM)
IC50 ([1]; Homo sapiens): 0.1 to 1 µM
IC50 ([2]; Homo sapiens): 1 to 10 µM
IC50 ([3]; Homo sapiens): 1 to 10 µM
IC50 ([4]; Homo sapiens): 1 to 10 µM
IC50 ([5]; Homo sapiens): 0.1 to 1 µM
IC50 ([6]; Homo sapiens): 1 to 10 µM
IC50 ([7]; Homo sapiens): 1 to 10 µM
IC50 ([8]; Homo sapiens): 0.1 to 1 µM

C[C@H]1CCC/C=C/[C@@H]2C[C@H](OC(=O)/C=C/c3ccccc3)C[C@H]2[C@H](OC(=O)/C=C/c2ccccc2)/C=C/C(=O)O1 [Compound C]
solubility at 24 h [9, 12]: 100 ± 230 µg/mL
solubility at 24 h [9, 13]: 5360 ± 3130 µg/mL (≈ 9.91 mM)
solubility at 24 h [9, 14]: 5300 ± 2510 µg/mL (≈ 9.8 mM)
IC50 ([1]; Homo sapiens): 1 to 10 µM
IC50 ([2]; Homo sapiens): 1 to 10 µM
IC50 ([3]; Homo sapiens): 1 to 10 µM
IC50 ([4]; Homo sapiens): 1 to 10 µM
IC50 ([5]; Homo sapiens): 1 to 10 µM
IC50 ([6]; Homo sapiens): 1 to 10 µM
IC50 ([7]; Homo sapiens): 1 to 10 µM
IC50 ([8]; Homo sapiens): 1 to 10 µM
